Values quoted from earlier work in US12029811B2, “Formulation and method for the treatment of androgenic alopecia” (CENTRO INTERNACIONAL DE COSMIATRÍA, S.A.P.I. DE C.V., priority 2018, dated 2024).

Key:
patients = details: oral, 5 mg tablets; impotence, erection failure, decreased libido, gynecomastia
alopecia = details: topical 5% solution (male) or 2% (female alopecia)

Row | Structure (SMILES) | Side effects (in words) (patients) | Individuals responding to the treatment (alopecia)
1 | CC(C)(C)NC(=O)[C@H]1CC[C@H]2[C@@H]3CC[C@H]4NC(=O)C=C[C@]4(C)[C@H]3CC[C@]12C [Finasteride, N-(1,1-dimethylethyl)-3-oxo-4-aza 5a-androst-1-en-17β-carboxamide] | side effects were significant | 
2 | Nc1cc(N2CCCCC2)nc(N)[n+]1[O-] [Minoxidil, 2,6-diamino-4-(piperidin-1-yl) pyrimidine 1-oxide] |  | ≤ 40%
